Several values for one entry are separate records, joined by “and”; a condition that tells them apart may be missing. Identical values can stand only once. Like-named read-outs stand apart in the source and are kept apart here.
How the values were obtained:
[1] = system: E. coli AG100A (AcrAB pump-deficient); test: MIC, broth microdilution; format: cell-based, Escherichia coli; conditions: Escherichia coli
E. coli AG100tet [2] = test: microbe, parasite or virus in culture; format: cell-based, Escherichia coli; conditions: Escherichia coli, AG100TET
Method: (§1) The assays were performed in triplicate and the MIC value was given as result of at least two concordant values.

E. coli AG100tet [3] = test: EtBr accumulation by real-time fluorometry; conditions: EtBr 2 µg/ml + inhibitor 80 µM
E. coli AG100 [4] = test: Membrane permeability assay (Live/Dead BacLight)
E. coli AG100 [5] = test: EtBr efflux by real-time fluorometry; conditions: AG100, AG100A and AG100tet (Fig. 2); 80 μM (20 μM for AG100A); glucose, 37 °C
E. coli AG100 [6] = test: Membrane potential assay (BacLight, DiOC2(3)); conditions: 80 µM
E. coli AG100 [7] = test: Checkerboard synergy assay (MIC of antibiotics/EtBr with efflux inhibitor); format: cell-based, Escherichia coli; conditions: for MIC: Escherichia coli
Method: as §1

E. coli AG100A = conditions: EtBr […] + inhibitor 20 µM

## CN(C)CCCN1c2ccccc2Sc2ccc(Cl)cc21 [CPZ, chlorpromazine]
[1]
  MIC: 60 µg/mL and 169 µM
E. coli AG100tet [2]; read-out: MIC of EtBr in presence of the efflux inhibitor, AG100tet, inhibitor 40 μM
  MIC: 256 µg/mL
E. coli AG100tet [2]; read-out: MIC of EtBr in presence of the efflux inhibitor, AG100tet, inhibitor 80 μM
  MIC: 128 µg/mL
E. coli AG100tet [2]; read-out: MIC of EtBr in presence of the efflux inhibitor, AG100tet, inhibitor 160 μM
  MIC: 128 µg/mL
E. coli AG100tet [2]; read-out: MIC of OFX in presence of the efflux inhibitor, AG100tet, inhibitor 40 μM
  MIC: 0.5 µg/mL
E. coli AG100tet [2]; read-out: MIC of OFX in presence of the efflux inhibitor, AG100tet, inhibitor 80 μM
  MIC: 0.5 µg/mL
E. coli AG100tet [2]; read-out: MIC of OFX in presence of the efflux inhibitor, AG100tet, inhibitor 160 μM
  MIC: 0.25 µg/mL
E. coli AG100tet [2]; read-out: MIC of OXA in presence of the efflux inhibitor, AG100tet, inhibitor 40 μM
  MIC: > 2050 µg/mL
E. coli AG100tet [2]; read-out: MIC of OXA in presence of the efflux inhibitor, AG100tet, inhibitor 80 μM
  MIC: 2050 µg/mL
E. coli AG100tet [2]; read-out: MIC of OXA in presence of the efflux inhibitor, AG100tet, inhibitor 160 μM
  MIC: 1020 µg/mL
E. coli AG100tet [2]; read-out: MIC of TET in presence of the efflux inhibitor, AG100tet, inhibitor 40 μM
  MIC: 32 µg/mL
E. coli AG100tet [2]; read-out: MIC of TET in presence of the efflux inhibitor, AG100tet, inhibitor 80 μM
  MIC: 32 µg/mL
E. coli AG100tet [2]; read-out: MIC of TET in presence of the efflux inhibitor, AG100tet, inhibitor 160 μM
  MIC: 16 µg/mL
E. coli AG100tet [3]; cycle 1
  EtBr fluorescence: 9.834
E. coli AG100tet [3]; cycle 2
  EtBr fluorescence: 10.8502
E. coli AG100tet [3]; cycle 3
  EtBr fluorescence: 12.3051
E. coli AG100tet [3]; cycle 4
  EtBr fluorescence: 13.857
E. coli AG100tet [3]; cycle 5
  EtBr fluorescence: 15.5494
E. coli AG100tet [3]; cycle 6
  EtBr fluorescence: 17.3058
E. coli AG100tet [3]; cycle 7
  EtBr fluorescence: 19.3992
E. coli AG100tet [3]; cycle 8
  EtBr fluorescence: 20.8092
E. coli AG100tet [3]; cycle 9
  EtBr fluorescence: 23.1444
E. coli AG100tet [3]; cycle 10
  EtBr fluorescence: 25.4323
E. coli AG100tet [3]; cycle 11
  EtBr fluorescence: 27.4946
E. coli AG100tet [3]; cycle 12
  EtBr fluorescence: 29.7214
E. coli AG100tet [3]; cycle 13
  EtBr fluorescence: 31.9876
E. coli AG100tet [3]; cycle 14
  EtBr fluorescence: 34.2074
E. coli AG100tet [3]; cycle 15
  EtBr fluorescence: 36.9702
E. coli AG100tet [3]; cycle 16
  EtBr fluorescence: 39.6127
E. coli AG100tet [3]; cycle 17
  EtBr fluorescence: 42.5123
E. coli AG100tet [3]; cycle 18
  EtBr fluorescence: 45.4508
E. coli AG100tet [3]; cycle 19
  EtBr fluorescence: 48.5847
E. coli AG100tet [3]; cycle 20
  EtBr fluorescence: 50.7436
E. coli AG100tet [3]; cycle 21
  EtBr fluorescence: 54.1808
E. coli AG100tet [3]; cycle 22
  EtBr fluorescence: 57.0724
E. coli AG100tet [3]; cycle 23
  EtBr fluorescence: 59.5808
E. coli AG100tet [3]; cycle 24
  EtBr fluorescence: 63.2028
E. coli AG100tet [3]; cycle 25
  EtBr fluorescence: 66.0088
E. coli AG100tet [3]; cycle 26
  EtBr fluorescence: 69.6637
E. coli AG100tet [3]; cycle 27
  EtBr fluorescence: 72.1
E. coli AG100tet [3]; cycle 28
  EtBr fluorescence: 75.2829
E. coli AG100tet [3]; cycle 29
  EtBr fluorescence: 78.0686
E. coli AG100tet [3]; cycle 30
  EtBr fluorescence: 80.8335
E. coli AG100 [4]; 80 uM, raw well reading
  BacLight Live/Dead fluorescence 485/20,528/20: 104 and 88
  BacLight Live/Dead fluorescence 485/20,590/35: 30 and 24
E. coli AG100 [4]; AG100, 80 µM
  membrane permeability increase / membrane permeation: 18%
E. coli AG100 [5]
  inhibition of EtBr efflux: inhibited
E. coli AG100 [6]
  membrane depolarization: similarly to that caused by PQQ4R
E. coli AG100 [7]; AG100, inhibitor 80 μM
  MIC of OFX in presence of the efflux inhibitor: 0.125 µg/mL
  MIC of OXA in presence of the efflux inhibitor: 512 µg/mL
E. coli AG100 [7]; AG100, AG100, inhibitor 160 μM, read-out: MIC of OXA in presence of the efflux inhibitor
  MIC: ≤ 1 µg/mL
E. coli AG100 [7]; AG100, read-out: MIC of EtBr in presence of the efflux inhibitor
  MIC: 25 µg/mL
E. coli AG100 [7]; AG100, read-out: MIC of EtBr in presence of the efflux inhibitor, AG100, inhibitor 40 μM
  MIC: 100 µg/mL
E. coli AG100 [7]; AG100, read-out: MIC of EtBr in presence of the efflux inhibitor, AG100, inhibitor 160 μM
  MIC: ≤ 0.39 µg/mL
E. coli AG100 [7]; AG100, read-out: MIC of OFX in presence of the efflux inhibitor
  MIC: 0.125 µg/mL
E. coli AG100 [7]; AG100, read-out: MIC of OFX in presence of the efflux inhibitor, AG100, inhibitor 160 μM
  MIC: 0.003 µg/mL
E. coli AG100 [7]; AG100, read-out: MIC of OXA in presence of the efflux inhibitor
  MIC: 512 µg/mL
E. coli AG100 [7]; AG100, read-out: MIC of TET in presence of the efflux inhibitor, AG100, inhibitor 40 μM
  MIC: 1 µg/mL
E. coli AG100 [7]; AG100, read-out: MIC of TET in presence of the efflux inhibitor, AG100, inhibitor 80 μM
  MIC: 0.5 µg/mL
E. coli AG100 [7]; AG100, read-out: MIC of TET in presence of the efflux inhibitor, AG100, inhibitor 160 μM
  MIC: ≤ 0.03 µg/mL
E. coli AG100A; cycle 1
  EtBr fluorescence: 2.607
E. coli AG100A; cycle 2
  EtBr fluorescence: 3.106
E. coli AG100A; cycle 3
  EtBr fluorescence: 3.464
E. coli AG100A; cycle 4
  EtBr fluorescence: 4.013
E. coli AG100A; cycle 5
  EtBr fluorescence: 4.508
E. coli AG100A; cycle 6
  EtBr fluorescence: 5.005
E. coli AG100A; cycle 7
  EtBr fluorescence: 5.439
E. coli AG100A; cycle 8
  EtBr fluorescence: 6.027
E. coli AG100A; cycle 9
  EtBr fluorescence: 6.585
E. coli AG100A; cycle 10
  EtBr fluorescence: 7.2591
E. coli AG100A; cycle 11
  EtBr fluorescence: 7.711
E. coli AG100A; cycle 12
  EtBr fluorescence: 8.1901
E. coli AG100A; cycle 13
  EtBr fluorescence: 9.033
E. coli AG100A; cycle 14
  EtBr fluorescence: 9.4255
E. coli AG100A; cycle 15
  EtBr fluorescence: 10.1045
E. coli AG100A; cycle 16
  EtBr fluorescence: 10.9436
E. coli AG100A; cycle 17
  EtBr fluorescence: 11.4479
E. coli AG100A; cycle 18
  EtBr fluorescence: 12.2134
E. coli AG100A; cycle 19
  EtBr fluorescence: 12.6889
E. coli AG100A; cycle 20
  EtBr fluorescence: 13.2115
E. coli AG100A; cycle 21
  EtBr fluorescence: 13.9156
E. coli AG100A; cycle 22
  EtBr fluorescence: 14.6607
E. coli AG100A; cycle 23
  EtBr fluorescence: 15.4189
E. coli AG100A; cycle 24
  EtBr fluorescence: 16.1017
E. coli AG100A; cycle 25
  EtBr fluorescence: 16.6199
E. coli AG100A; cycle 26
  EtBr fluorescence: 17.3366
E. coli AG100A; cycle 27
  EtBr fluorescence: 18.2879
E. coli AG100A; cycle 28
  EtBr fluorescence: 18.7671
E. coli AG100A; cycle 29
  EtBr fluorescence: 19.416
E. coli AG100A; cycle 30
  EtBr fluorescence: 19.8456

Reference: publication PMC5433425 (PeerJ, 2017)
